Source: patent publication US9096515B2, “Methods of using cycloalkylmethylamine derivatives” (Reviva Pharmaceuticals, Inc., priority 2010, dated 2015)
Where two headings read alike, the source gives them in different places.

Key:
[1] = target: human recombinant transporter protein norepinephrine (NET) (Homo sapiens (Human), UniProt P23975); assay: radioligand binding assay, norepinephrine transporter
Protocol: (§1) The monoamine transporters inhibitory activities of selected compounds cycloalkylmethylamine derivatives comprising Formula (I) are reported herein. The compounds were evaluated using well established radioligand binding assays protocols (Galli, A. et al., J. Exp. Biol. 1995, 198, 2197-2212; Giros, B. et al., Trends Pharmcol. Sci. 1993, 14, 43-49; Gu, H. et al., J. Biol. Chem. 1994, 269(10), 7124-7130; Shearman, L. P. et al, Am. J. Physiol., 1998, 275(6 Pt 1), C1621-1629; Wolf, W. A. et al., J. Biol. Chem. 1992, 267(29), 20820-20825). The human recombinant transporter proteins dopamine (DAT), norepinephrine (NET) and serotonin (SERT) were selected for the in vitro assays. The radioligand binding assays were carried out at 11 different test concentrations […] to 1 μM.
(§2) The assays were carried out in duplicates and the quantitative data are reported as Ki in the TABLE 1.

[2] = target: human recombinant transporter protein dopamine (DAT) (Homo sapiens (Human), UniProt Q01959); assay: radioligand binding assay, dopamine transporter
Chain of human recombinant transporter protein dopamine (DAT) (Q01959 whole entry): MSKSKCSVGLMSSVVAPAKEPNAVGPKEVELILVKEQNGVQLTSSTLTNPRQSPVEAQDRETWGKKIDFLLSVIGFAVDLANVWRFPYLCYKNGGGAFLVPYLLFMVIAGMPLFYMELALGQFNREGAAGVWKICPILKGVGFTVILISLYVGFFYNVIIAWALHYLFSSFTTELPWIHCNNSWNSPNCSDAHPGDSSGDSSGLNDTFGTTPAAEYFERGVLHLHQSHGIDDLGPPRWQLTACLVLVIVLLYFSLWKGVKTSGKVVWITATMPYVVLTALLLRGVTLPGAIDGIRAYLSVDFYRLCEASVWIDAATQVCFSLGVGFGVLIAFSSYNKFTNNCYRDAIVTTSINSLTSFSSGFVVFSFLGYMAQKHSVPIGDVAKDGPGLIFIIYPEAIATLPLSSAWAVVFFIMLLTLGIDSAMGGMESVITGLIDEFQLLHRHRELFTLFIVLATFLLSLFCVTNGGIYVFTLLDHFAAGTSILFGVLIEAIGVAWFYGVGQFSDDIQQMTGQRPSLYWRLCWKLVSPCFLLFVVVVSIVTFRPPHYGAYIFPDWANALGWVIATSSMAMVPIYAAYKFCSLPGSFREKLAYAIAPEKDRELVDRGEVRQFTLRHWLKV
Protocol: as §1, §2

[3] = target: human recombinant transporter protein serotonin (SERT) (Homo sapiens (Human), UniProt P31645); assay: radioligand binding assay, serotonin transporter
Protocol: as §1, §2

[4] = active metabolites of sibutramine; background statement; cited from earlier work
[5] = human recombinant NET, 11 test concentrations 0.1 nm to 1 μM, duplicates, read-out: NET Ki
[6] = human recombinant DAT, 11 test concentrations 0.1 nm to 1 μM, duplicates, read-out: DAT Ki
[7] = human recombinant SERT, 11 test concentrations 0.1 nm to 1 μM, duplicates, read-out: SERT Ki

Chain of human recombinant transporter protein norepinephrine (NET) (P23975 whole entry): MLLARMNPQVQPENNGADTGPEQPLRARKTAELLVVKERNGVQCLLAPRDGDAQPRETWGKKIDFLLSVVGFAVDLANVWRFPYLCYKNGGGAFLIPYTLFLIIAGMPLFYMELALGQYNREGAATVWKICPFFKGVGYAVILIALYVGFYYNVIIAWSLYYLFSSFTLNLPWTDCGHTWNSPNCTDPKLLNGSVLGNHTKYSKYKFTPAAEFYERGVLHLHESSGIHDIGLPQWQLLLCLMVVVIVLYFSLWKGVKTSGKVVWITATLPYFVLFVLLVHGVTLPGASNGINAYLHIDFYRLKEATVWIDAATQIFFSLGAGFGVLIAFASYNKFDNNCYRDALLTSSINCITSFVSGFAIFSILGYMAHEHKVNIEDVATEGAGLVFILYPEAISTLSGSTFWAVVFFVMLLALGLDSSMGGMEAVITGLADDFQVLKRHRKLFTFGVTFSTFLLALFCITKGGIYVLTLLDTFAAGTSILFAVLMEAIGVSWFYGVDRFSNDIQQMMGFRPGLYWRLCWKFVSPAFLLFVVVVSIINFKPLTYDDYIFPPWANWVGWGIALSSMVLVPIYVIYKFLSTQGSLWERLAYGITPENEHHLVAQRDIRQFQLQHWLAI

Compound | Ki [1, 5] [nM] | Ki [2, 6] [nM] | Ki [3, 7] [nM] | Ki [1] [nM] | Ki [2] [nM] | Ki [3] [nM] | elimination half-life [4] [h]
2-((1-(1-(3,4-Dichlorophenyl)cyclobutyl)-3-methylbutyl)amino)ethyl propionate [Compound 12q] | 38.2 | 7.2 | 10.6 |  |  |  | 
CC(CCNCCCC(N)=O)CC1(c2ccc(Cl)c(Cl)c2)CCC1 (racemic) [33a -Racemic] | 50.1 | 1.5 | 8.1 |  |  |  | 
CCOc1ccc(C2(CC(C)CCNCCCC(N)=O)CCC2)cc1 (racemic) [33b -Racemic] | > 10000 | 472 | 5.49 |  |  |  | 
C[C@@H](CCNCCCC(N)=O)CC1(c2ccc(Cl)c(Cl)c2)CCC1 (single isomer, unassigned) [33a -(R)-Isomer] | 30.3 | 0.91 | 2.3 |  |  |  | 
CCOc1ccc(C2(C[C@@H](C)CCNCCCC(N)=O)CCC2)cc1 (single isomer, unassigned) [33b -(R)-Isomer] | 6520 | 130 | 2.79 |  |  |  | 
CCOc1ccc(C2(C[C@H](C)CCNCCCC(N)=O)CCC2)cc1 (single isomer, unassigned) [33b -(S)-Isomer] | 1090 | 4030 | 329 |  |  |  | 
CCOc1ccc(C2(C(CC(C)C)NCCOC(=O)CC)CCC2)cc1 (centres unmarked) [Compound 12u, 2-((1-(1-(4-Ethoxyphenyl)cyclobutyl)-3-methylbutyl)amino)ethyl propionate] | 2340 | 80.4 | 5.7 |  |  |  | 
CCOC(=O)NCCNC(CC(C)C)C1(c2ccc(Cl)c(Cl)c2)CCC1 (centres unmarked) [Compound 21a, Ethyl (2-((1-(1-(3,4-dichlorophenyl)cyclobutyl)-3-methylbutyl)amino)ethyl)carbamate] |  |  | 1 | 13.4 | 38.4 |  | 
CCOC(=O)NCCNC(CC(C)C)C1(c2ccc(OCC)cc2)CCC1 (centres unmarked) [Compound 21b, Ethyl (2-((1-(1-(4-ethoxyphenyl)cyclobutyl)-3-methylbutyl)amino)ethyl)carbamate] |  |  |  | 1920 | 159 | 2 | 
CCCC(=O)NCCNC(CC(C)C)C1(c2ccc(Cl)c(Cl)c2)CCC1 (centres unmarked) [Compound 31a, N-(2-((1-(1-(3,4-Dichlorophenyl)cyclobutyl)-3-methylbutyl)amino)ethyl)butyramide] |  |  | 27.8 | 77.7 | 52.7 |  | 
CCCC(=O)NCCNC(CC(C)C)C1(c2ccc(OCC)cc2)CCC1 (centres unmarked) [Compound 31b, N-(2-((1-(1-(4-Ethoxyphenyl)cyclobutyl)-3-methylbutyl)amino)ethyl)butyramide] |  | 251 |  | 4730 |  | 25 | 
CNC(CC(C)C)C1(c2ccc(Cl)cc2)CCC1 (centres unmarked) [Compound M1] |  |  |  |  |  |  | 14
CC(C)CC(N)C1(c2ccc(Cl)cc2)CCC1 (centres unmarked) [Compound M2] |  |  |  |  |  |  | 16
